This is an account of results in patent US9603896B2, “Peptide compounds and methods of production and use thereof” (priority 2012, dated 2017).

In assay [1] the test system is Pseudomonas aeruginosa ATCC® 27853™. The class given is cell-based. As to conditions: 180 minutes.
Assay [2] has as its system Acinetobacter baumannii ATCC® BAA-747™. The assay can be described thus: In vitro bactericidal assay (CFU remaining, log reduction). The format is cell-based. As to conditions: for reduction of CFU/ml / bactericidal activity against Acinetobacter baumannii: 60 minutes; for reduction of CFU/ml: highest peptide concentrations (25 μM); for bactericidal activity against Acinetobacter baumannii: peptides up to 25 μM, gentamicin 4 μg/ml. The procedure: The three peptide compounds BCC01-5RMP (SEQ ID NO:21), BCC02-5RMP (SEQ ID NO:22), and BCC03-5RMP (SEQ ID NO:23) were assayed for in vitro bactericidal activity against Pseudomonas aeruginosa, Escherichia coli, Salmonella typhimurium, and Acinetobacter baumannii. The starting inoculum for all experiments was 1×10^6 colony forming units (CFU)/ml. The CFU remaining at the end of 60 to 180 minute incubation was determined, and the data plotted as a log reduction in CFU/ml.
For FIGS. 10-13, in vitro bactericidal assays were performed using a starting inoculum of 1×10^6 CFU/ml of the bacterial suspension. The CFU remaining at the end of the 60-180 minute incubation was determined, and the data was plotted as log reduction in CFU/ml.
In particular, each of the test peptides (CAP37 peptides 120-146WR, 120-146WH, and 95-122 (SEQ ID NOs: 30, 31, and 26, respectively)) was used at 25, 12.5, 6.25, and 3.12 μM. Gentamicin was used at 4 μg/ml. 1×10^6/ml Acinetobacter baumannii ATCC® BAA-747″ or Pseudomonas aeruginosa ATCC® 27853™ (American Type Culture Collection, Manassas, Va.) were incubated with the peptides, negative buffer control (tryptone saline), and positive control gentamicin at pH 5.5 or 7.2. A 60 minute incubation was used for Acinetobacter baumannii ATCC® BAA747™, while a 180 minute incubation was used for Pseudomonas aeruginosa ATCC® 27853™. 50 μl aliquots were plated out on agar plates and incubated overnight. Colony forming units were counted after overnight incubation and CFU/ml calculated.

A further assay deals with swine skin. The experiment in a line: Swine full thickness excisional dermal wound model. The class given is in vivo. As to conditions: for Mean Wound Healing (%): topical 3 mg/ml, 0.20 ml per wound daily; for histology: epidermal resurfacing and maturation vs saline control: day 14 post-wounding; for dermal wound healing vs saline: topically at 3 mg/ml, over 14 days; for Histopathology Results, Mean Angiogenesis / Histopathology Results, Mean Epithelization / Histopathology Results, Mean Granulation / Histopathology Results, Mean Inflammation: wounds harvested day 14, 3 mg/ml topical. Here is the method: In this Example, peptide compounds of the presently disclosed and claimed inventive concept(s) were evaluated as to their activity on the dermal wound healing process in a clinically relevant swine full thickness excisional wound model. Three different peptide formulations (Group B, Peptide 95-122 (SEQ ID NO:26); Group C, Peptide 120-146WH (SEQ ID NO:31); and Group D, Peptide 120-146QH-5RMP (SEQ ID NO:33)) were each evaluated at the same concentration (3 mg/ml). Sterile saline served as the control (Group A).
Full thickness excisional wounds were induced on the dorsum of swine (N=3) using a 1.0 cm biopsy punch. Treatments were administered (0.20 ml) to each wound (N=6 wounds per group), and the wounds were dressed with standard occlusive dressing ([…]™, 3M Corporation, St. Paul, Minn.). Treatments were reapplied daily and dressings changed. Clinical wound healing observations and wound area (2 mm) measurements were performed on days 0, 3, 5, 7, 10, and 14 post-wounding. Wound area (2 mm) data were expressed as percentage (%) of wound healing. Animals were terminated on day 14 with wounds harvested and processed for histological evaluation. […] All peptide formulation treatment groups healed faster with greater rate of closure and re-epithelialization over time, as compared to the saline control (Group A).

Where two headings read alike, the source gives them in different places. Ends that are not written are not given here.

Take “GTRCQVAGWGSWHSGGRLSRFPRFVNV [Peptide 120-146WH]”: the “reduction of CFU (FIG. 14)” value in assay [1] (pH 5.5, highest concentrations (150 μg/ml)) is given as 6 logs. The “reduction of CFU/ml” value is 6 logs in assay [1] (pH 7.2, highest concentrations of peptides (25 μM)); around 4 logs in assay [2] (pH 5.5); around 5.5 logs in assay [2] (pH 7.2). Further, in assay [1] (pH 7.2, peptides at 25 μM), the “bactericidal activity against Pseudomonas aeruginosa” value is given as “as effective as the standard antibiotic gentamicin”. In addition, the “activity against A. baumannii” value in assay [2] (25 μM) is listed as “highly active”. Further, the “Mean Wound Healing (%)” value with swine skin (Day 0) is 0.0%; in the assay on swine skin (Day 3), 22.1%; with swine skin (Day 5), 35.9%; in the assay with swine skin (Day 7) it was 59.7%; in the assay with swine skin (Day 10) it was 93.5%; in the assay with swine skin (Day 14), 97.5%. The “histology: epidermal resurfacing and maturation vs saline control” value with swine skin is “greater extent of epidermal resurfacing and maturation of the epidermis”. Besides, in the assay on swine skin, the “dermal wound healing vs saline” value is “accelerate dermal wound healing”. For the same sequence, the “Histopathology Results, Mean Angiogenesis” value in the assay with swine skin amounted to 1.7. Moreover, the “Histopathology Results, Mean Epithelization” value in the assay with swine skin came out at 3.7. The “Histopathology Results, Mean Granulation” value in the assay on swine skin turned out to be 4.0. In the assay with swine skin, the “Histopathology Results, Mean Inflammation” value is reported as 0.5.
Regarding “LDREANLTSSVTILPLPLQNATVEAGTR (listed as Homo sapiens) [Peptide 95-122]”, the “bactericidal activity against Pseudomonas aeruginosa” value in assay [1] (pH 5.5, peptides up to 25 μM) is recorded as “not active”. For the same sequence, the “bactericidal activity against Pseudomonas aeruginosa” value in assay [1] (pH 7.2, peptides at 25 μM) is reported as “not active”. In addition, the “bactericidal activity against Acinetobacter baumannii” value in assay [2] (pH 5.5) is given as “not active”. For the same sequence, the “bactericidal activity against Acinetobacter baumannii” value in assay [2] (pH 7.2) was “not active”. The “Mean Wound Healing (%)” value in the assay with swine skin (Day 0) was 0.0%. Also, the “Mean Wound Healing (%)” value with swine skin (Day 14) is 100.0%. Moreover, in the assay on swine skin, the “histology: epidermal resurfacing and maturation vs saline control” value was “greater extent of epidermal resurfacing and maturation of the epidermis”; the “dermal wound healing vs saline” value is given as “accelerate dermal wound healing”; the “Histopathology Results, Mean Angiogenesis” value is 2.3; the “Histopathology Results, Mean Epithelization” value turned out to be 4.0. In the assay with swine skin, the “Histopathology Results, Mean Granulation” value is 4.0 and the “Histopathology Results, Mean Inflammation” value was 0.5.
